Holding throughout (format): cell-based
For assay [1], the target named is T1, mouse P2X1 receptor (Mus musculus, UniProt P51576).
T1 construct: EST clones containing full-length cDNAs of mouse P2X1 (clone ID: 4189541) and human P2X7 receptor (clone ID: 5286944); host or cells: Xenopus oocytes (cRNA injected)
T1 sequence (P51576 1-399): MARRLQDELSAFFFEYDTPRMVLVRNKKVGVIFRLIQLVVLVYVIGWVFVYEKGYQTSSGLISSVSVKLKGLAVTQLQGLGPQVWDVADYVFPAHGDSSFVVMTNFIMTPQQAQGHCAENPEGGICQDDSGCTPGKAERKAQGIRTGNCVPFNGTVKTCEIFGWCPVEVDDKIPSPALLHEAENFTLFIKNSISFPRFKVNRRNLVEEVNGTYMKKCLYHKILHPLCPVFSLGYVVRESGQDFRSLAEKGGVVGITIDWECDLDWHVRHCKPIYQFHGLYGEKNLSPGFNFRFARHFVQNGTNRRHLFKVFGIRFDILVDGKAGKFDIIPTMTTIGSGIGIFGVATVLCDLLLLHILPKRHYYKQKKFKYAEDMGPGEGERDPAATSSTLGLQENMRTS
Nature of the assay: Two-electrode voltage clamp, ATP-induced ion current in Xenopus oocytes expressing mouse P2X1. As to conditions: for inhibition at 10 µM / % inhibition mP2X1: Table 2, 10 μM compound, ion current induced by 2 μM ATP, mean ± SEM, n = 4; for inhibition at 10 µM: read-out: % inhibition mP2X1; for Hill coefficient: concentration-inhibitory curve, 2 μM ATP (FIG. 1B, FIG. 2A); for IC50: concentration-response curve, 2 μM ATP, mean of four observations, read-out: IC50 value. Here is the method: 1-1. Antagonistic Activity at Recombinant Mouse P2X1 and Human P2X3 Receptors
(§1) Xenopus oocytes were harvested and prepared with method as previously described in publications. Defolliculated oocytes were injected cytosolically with mouse P2X1 and human P2X3 receptor cRNA ([…], 1 μg/mL), respectively, incubated for 24 hrs at 18° C. in Barth's solution and kept for up to 12 days at 4° C. until used in electrophysiological experiments. ATP-activated membrane currents (Vh=−70 mV) were recorded from cRNA-injected oocytes using the twin-electrode voltage-clamp technique (Axoclamp 2B amplifier). Voltage recording (1-2 MΩ tip resistance) and current-recording microelectrodes (5 MΩ tip resistance) were filled with 3.0 M KCl. Oocytes were held in an electrophysiological chamber and superfused with Ringer's solution (5 mL/min, at 18° C.) containing (mM) NaCl, 110; KCl, 2.5; HEPES, 5; BaCl2, 1.8, adjusted to pH 7.5. ATP was superfused over the oocytes for 60-120s then washed out for a period of 20 min. For inhibition curves, data were normalized to the current evoked by ATP, at pH 7.5. Test substances were added for 20 min prior to ATP exposure; all peptides were tested for reversibility of their effects. The concentration required to inhibit the ATP response by 50% (IC50) was taken from Hill plots constructed using the formula: log(I/Imax−1), where I is the current evoked by ATP in the presence of an antagonist. Data are presented as mean±SEM (n=4) for the data from different batches of oocytes.
Background: Two-electrode voltage clamp is typically applied to oocytes expressing channels or transporters.

Assay [2] deals with T2, human P2X7 receptor (Homo sapiens, UniProt Q99572).
T2 construct: EST clones containing full-length cDNAs of mouse P2X1 (clone ID: 4189541) and human P2X7 receptor (clone ID: 5286944); host or cells: HEK293
T2 sequence (Q99572 1-595): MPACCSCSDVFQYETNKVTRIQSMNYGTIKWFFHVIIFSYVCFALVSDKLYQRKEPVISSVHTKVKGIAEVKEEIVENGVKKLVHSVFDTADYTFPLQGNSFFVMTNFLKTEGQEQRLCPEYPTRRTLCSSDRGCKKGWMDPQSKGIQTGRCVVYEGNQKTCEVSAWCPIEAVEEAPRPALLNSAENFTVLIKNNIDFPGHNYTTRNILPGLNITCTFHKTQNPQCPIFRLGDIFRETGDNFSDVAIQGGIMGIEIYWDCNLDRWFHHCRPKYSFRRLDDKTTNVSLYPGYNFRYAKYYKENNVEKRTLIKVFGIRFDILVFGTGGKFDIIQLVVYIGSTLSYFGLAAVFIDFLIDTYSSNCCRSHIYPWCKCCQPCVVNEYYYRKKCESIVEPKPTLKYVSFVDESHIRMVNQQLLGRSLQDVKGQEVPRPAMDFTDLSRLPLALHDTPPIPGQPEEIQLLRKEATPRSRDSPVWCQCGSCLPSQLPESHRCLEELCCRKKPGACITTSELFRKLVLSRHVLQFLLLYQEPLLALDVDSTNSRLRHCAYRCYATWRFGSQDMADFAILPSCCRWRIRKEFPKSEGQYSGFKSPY
Nature of the assay: Ethidium+ accumulation assay in human P2X7-expressing HEK293 cells. The following applies: 10 μM compound, ethidium+ accumulation induced by 6 μM BzATP, n = 3. Here is the method: 1-2. Ethidium^+ Accumulation Assay at Human P2X7 Receptors
Human P2X7-expressing HEK293 cells were grown as monolayer culture at 37° C. in a humidified atmosphere of 5% CO2, DMEM supplemented with 10% fetal bovine serum. Cells were harvested with treatment of Trypsin/EDTA solution, collected by centrifugation (200 g for 5 min).
The cells were resuspended at 2.5×10^6 cells/mL in assay buffers, consisting of (in mM) HEPES 10, KCl 140, glucose 5, EDTA 1 (pH 7.4), and then ethidium bromide (100 μM) was added. Cell suspensions were added to 96 well plates containing the P2X7 receptor agonist, ATP or BzATP, at 2×10^5 cells/wells. Plates were incubated at 37° C. for 120 min and cellular accumulation of ethidium^+ was determined by measuring fluorescence with Bio-Tek instrument FL600 fluorescent plate reader (excitation wavelength of 530 nm and emission wavelength of 590 nm). When the effects of antagonists, such as PPADS, KN62, and test peptides were studied, antagonists were treated together with agonist without pre-incubation.

In assay [3] the target is T3, human P2X3 receptor (Homo sapiens, UniProt P56373).
T3 construct: expressed in transfected cells; host or cells: Xenopus oocytes (cRNA injected); cDNA from the Max-Planck Institute laboratory (Dr. W. Stuhmer and Dr. F. Soto)
T3 sequence (P56373 1-397): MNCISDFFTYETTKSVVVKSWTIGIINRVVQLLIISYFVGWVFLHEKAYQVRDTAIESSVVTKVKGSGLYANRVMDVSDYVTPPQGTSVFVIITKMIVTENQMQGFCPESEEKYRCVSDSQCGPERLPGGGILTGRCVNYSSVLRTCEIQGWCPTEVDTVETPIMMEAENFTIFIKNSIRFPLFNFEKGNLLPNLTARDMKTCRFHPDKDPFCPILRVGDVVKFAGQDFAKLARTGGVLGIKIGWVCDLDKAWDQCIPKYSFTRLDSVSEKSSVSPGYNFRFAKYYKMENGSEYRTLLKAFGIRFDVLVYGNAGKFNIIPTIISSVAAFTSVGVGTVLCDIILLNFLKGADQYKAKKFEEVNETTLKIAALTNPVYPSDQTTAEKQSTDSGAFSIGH
Nature of the assay: Two-electrode voltage clamp, ATP-induced ion current in Xenopus oocytes expressing human P2X3. As to conditions: for inhibition at 10 µM: Table 2, 10 μM compound, ion current induced by 2 μM ATP, mean ± SEM, n = 4, read-out: % inhibition hP2X3; for inhibition at 0.1 µM: concentration of 100 nM, receptor not stated in the sentence (follows FIG. 2B, human P2X3), read-out: % inhibition; for Hill coefficient: concentration-inhibitory curve, 2 μM ATP (FIG. 1C, FIG. 2B); for IC50: concentration-response curve, 2 μM ATP, mean of four observations, read-out: IC50 value. The protocol:
Antagonistic Activity at Recombinant Mouse P2X1 and Human P2X3 Receptors
as §1

Here are results for 13 compounds from US9546139B2, “Pyridine carboxylic acid based compound used as a P2X1 and P2X3 receptor antagonist, a production method for the same and a composition comprising the same” (GWANGJU INSTITUTE OF SCIENCE AND TECHNOLOGY, priority 2010, dated 2017).

Molecules are shown by their SMILES.

As a reminder, the inhibition is the relative decrease from the control value, in per cent. With `Cc1nc(Cc2ccccc2)c(C(=O)O)c(C(=O)O)c1O` [Compound 35, 2-Benzyl-5-hydroxy-6-methyl-pyridine-3,4-dicarboxylic acid], the inhibition at 10 µM in assay [1] is 54.2 ± 10.6%; in assay [3], 31.4 ± 6.2%. Further, in assay [2], the “% inhibition hP2X7” value is “inactive”.
The Hill coefficient is the slope factor of the fitted curve. One may read the IC50 as the midpoint of a concentration-inhibition curve. For `Cc1nc(CCc2ccccc2)c(C(=O)O)c(C(=O)O)c1O` [Compound 36, 5-Hydroxy-6-methyl-2-phenethyl-pyridine-3,4-dicarboxylic acid], in assay [1], the “% inhibition mP2X1” value is listed as 73.4 ± 9.7%, the inhibition at 10 µM was determined as 77%, the Hill coefficient is −1.03±0.21 and the IC50 is 361 nM. For the same compound, in assay [2], the “% inhibition hP2X7” value was “inactive”. In assay [3], the inhibition at 10 µM is 51 ± 9.8%, the inhibition at 0.1 µM was found to be 38.3%, the Hill coefficient is listed as −0.63±0.20 and the concentration for half-maximal inhibition (IC50) was 432 nM.
For `COc1ccc(CCc2nc(C)c(O)c(C(=O)O)c2C(=O)O)cc1` [Compound 37, 5-Hydroxy-2-[2-(4-methoxy-phenyl)ethyl]-6-methyl-pyridine-3,4-dicarboxylic acid], the “% inhibition mP2X1” value in assay [1] stood at 77.0 ± 3.8%. Besides, the inhibition at 10 µM turned out to be 78% in assay [1] and 59.8 ± 4.6% in assay [3]. Also, the “% inhibition hP2X7” value in assay [2] is “inactive”.
Regarding `Cc1nc(C=Cc2ccccc2)c(C(=O)O)c(C(=O)O)c1O` [Compound 38, 5-Hydroxy-6-methyl-2-styryl-pyridine-3,4-dicarboxylic acid], in assay [1], the inhibition at 10 µM is 71.4 ± 4.3%, the Hill coefficient is recorded as −0.98±0.11 and the half-inhibitory concentration (IC50) worked out at 509 nM. For the same compound, the “% inhibition hP2X7” value in assay [2] is “inactive”. In assay [3], the inhibition at 10 µM amounted to 48.4 ± 9%, the inhibition at 0.1 µM came to 19.2%, the Hill coefficient is reported as −0.52±0.12 and the IC50 was found to be 782 nM.
In the case of `Cc1nc(CCc2ccc(C(=O)O)cc2)c(C(=O)O)c(C(=O)O)c1O` [Compound 39, 2-[2-(4-Carboxy-phenyl)-ethyl]-5-hydroxy-6-methyl-pyridine-3,4-dicarboxylic acid], in assay [1], the “% inhibition mP2X1” value was determined as 82.7 ± 6.0%, the inhibition at 10 µM stood at 82%, the Hill coefficient was −1.00±0.09 and the IC50 was 186 nM. Moreover, the “% inhibition hP2X7” value in assay [2] was “inactive”. For the same compound, in assay [3], the inhibition at 10 µM came out at 68.9 ± 11.7%, the inhibition at 0.1 µM was 34%, the Hill coefficient is recorded as −0.58±0.27 and the IC50 was 339 nM.
Regarding `COc1cccc(CCc2nc(C)c(O)c(C(=O)O)c2C(=O)O)c1` [Compound 40, 5-Hydroxy-2-[2-(3-methoxy-phenyl)-ethyl]-6-methyl-pyridine-3,4-dicarboxylic acid], the results for the inhibition at 10 µM in assay [1] and in assay [3] were 52.4 ± 6.2% and 39.3 ± 3.8%, respectively. Further, the “% inhibition hP2X7” value in assay [2] is “inactive”.
Turning to `COc1ccccc1CCc1nc(C)c(O)c(C(=O)O)c1C(=O)O` [Compound 41, 5-Hydroxy-2-[2-(2-methoxy-phenyl)-ethyl]-6-methyl-pyridine-3,4-dicarboxylic acid], the inhibition at 10 µM in assay [1] came out at 49.8 ± 5.4%; in assay [3], 34.5 ± 4.3%. In addition, the “% inhibition hP2X7” value in assay [2] is “inactive”.
Take `CC(=O)c1c(O)c(C)nc(Cc2ccccc2)c1C(=O)O` [Compound 44, 4-acetyl-2-benzyl-5-hydroxy-6-methylnicotinic acid]: in assay [1], the “% inhibition mP2X1” value was found to be 44.2 ± 4.0% and the inhibition at 10 µM is 46%. Also, the “% inhibition hP2X7” value in assay [2] is “inactive”. In assay [3], the inhibition at 10 µM amounted to 18.3 ± 6.4%.
`CC(=O)c1c(O)c(C)nc(CCc2ccccc2)c1C(=O)O` [Compound 45, 4-acetyl-5-hydroxy-6-methyl-2-phenethylnicotinic acid]: the inhibition at 10 µM in assay [1] turned out to be 47.9 ± 8.1%; in assay [3] it was 37.3 ± 10%. In addition, the “% inhibition hP2X7” value in assay [2] is “inactive”.
The corresponding values for `COc1ccc(CCc2nc(C)c(O)c(C(C)=O)c2C(=O)O)cc1` [Compound 46, 4-acetyl-5-hydroxy-2-(4-methoxyphenethyl)-6-methylnicotinic acid] are 52 ± 7.1%, 42.2 ± 7.5% and “inactive”.
`CC(=O)c1c(O)c(C)nc(/C=C/c2ccccc2)c1C(=O)O` [Compound 47, (E)-4-acetyl-5-hydroxy-6-methyl-2-styrylnicotinic acid]: the values for the inhibition at 10 µM in assay [1] and in assay [3] were 40.4 ± 1.3% and 27.4 ± 5.5%, respectively. Further, the “% inhibition hP2X7” value in assay [2] was “inactive”.
For the compound `COc1cccc(/C=C/c2nc(C)c(O)c(C(C)=O)c2C(=O)O)c1` [Compound 48, (E)-4-acetyl-5-hydroxy-2-(3-methoxystyryl)-6-methylnicotinic acid], the inhibition at 10 µM in assay [1] came out at 29.9 ± 5.7%; in assay [3] it was 15.8 ± 9%. Further, the “% inhibition hP2X7” value in assay [2] was “inactive”.
The corresponding values for `COc1ccccc1/C=C/c1nc(C)c(O)c(C(C)=O)c1C(=O)O` [Compound 49, (E)-4-acetyl-5-hydroxy-2-(2-methoxystyryl)-6-methylnicotinic acid] are 11.4 ± 3.3%, 6.3 ± 2.3% and “inactive”.
